Assay [1] concerns Raw264.7 cells. Kind of assay: Drug screen and titration: siRNACy3-LN uptake and punctate distribution (Cellomics ArrayScan). It is filed as cell-based, mouse. To be noted: for Normalized Punctate Distribution / Normalized siRNA Uptake: 10 μg/mL siRNACy3 in DLinDMA LN, ~10 μM drug, 24 h; for Normalized Punctate Distribution: normalized to absence of drug; for Normalized siRNA Uptake: total Cy3 intensity normalized to absence of drug; for punctate / cytosolic distribution of siRNACy3 in titration study: drug 0-30 μM, 10 μg/mL siRNACy3-LN; for increase in siRNACy3 accumulation: drug at 30 μM, 10 μg/mL siRNACy3 in DLinDMA LNs, normalized to no drug. The protocol: (§1) Cells were fixed with 3% paraformaldehyde in PBS in the presence of Hoescht for 15 minutes. Cells were rinsed and stored in PBS supplemented with calcium chloride and magnesium sulfate. Plates were scanned and analyzed with the Cellomics ArrayScan VTI.
as §1

For assay [2], the system named is Raw264.7 cells. Kind of assay: Chloroquine / CQ-lipid LN formulations: LN uptake (SPDiO) and siRNA distribution (Cellomics, confocal). It is filed as cell-based, mouse. The method, then:
All lipid stocks (DSPC, PEG-s-DMG, Cholesterol, SP-DiOC18, chloroquine lipid and DLinDMA) were dissolved and maintained in 100% ethanol. Lipids were mixed together at a molar % ratio of 40:10:39.8:10:0.2 DLinDMA:PEG-s-DMG:cholesterol:DSPC:SP-DiO18 or 40:10:35.8:9:0.2 with 5% CQ-lipid or 35:10:39.8:0.2 with 5% CQ-lipid. Lipid mixture was added drop-wise to the formulation buffer (50 mM citrate, pH 4.0) to form multi lamellar vesicles (MLV). Large unilamellar vesicles (LUVs) were formed upon extrusion of MLVs through two stacked 80 nm Nuclepore polycarbonate filters using an extruder from Northern Lipids (Vancouver, BC, Canada) at ˜300 psi. In order to encapsulate siRNA, siRNA was added drop-wise to preformed vesicles and incubated at 35° C. for 30 minutes with constant mixing. Removal of ethanol and neutralization of formulation buffer were performed by dialysis in PBS for 16 hours. Distribution of size was determined by dynamic light scattering using a NICOMP 370 particle sizer (Nicomp Particle sizing Inc., Santa Barbara, Calif.). siRNA encapsulation efficiency was determined by removal of free siRNA using VivaPureD MiniH columns (Sartorius Stedim Biotech) from samples collected before and after dialysis. The encapsuted siRNA from eluants were then extracted and quantified at 260 nm. siRNA to lipid ratio was determined by measurement of cholesterol content in vesicles by using the Cholesterol E enzymatic assay from Wako Chemicals USA (Richmond, Va.).
Raw264.7 cells grown on glass coverslips were treated with 10 μg/mL Cy5-siRNA-LN/SPDiO or siRNACy3-LN/SPDiO constituted of +/−5% CQ-lipid in the presence of 35 or 40% DLinDMA. The overall uptake of LNs was monitored with SPDiO and the distribution of siRNA was monitored using either Cy5- or Cy3-labelled siRNA. Cells were fixed with 3% paraformaldehyde in PBS in the presence of Hoescht for nuclear staining for 15 minutes. Glass coverslips were mounted onto slides and analyzed by confocal microscopy (Olympus FV1000). Fluorochromes were excited at 488 nm (DiO), 594 nm (Alexa-594), 550 nm (Cy3) and at 633 nm (Cy5) and images were collected sequentially with 60× oil immersion objective lens.
Raw264.7 cells were treated with LNs consisting of 40% DLinDMA in the absence or presence of 10 or 30 μM chloroquine or formulation consisting of 35% DLinDMA with 5% CQ-lipid (˜14.7 μM chloroquine). Total lipid uptake was estimated by cellular SPDiO fluorescence. When cells were treated for 16 hours, the uptake of SPDiO was dependent on the concentration of chloroquine as well as concentration of LNs (FIG. 4A). When Raw264.7 cells were treated only with DLinDMA LNs, the intensity of SPDiO increased in respect to concentration. […] The Cy5-siRNA distribution at 16 hours was relatively more “punctate” than that at 24 hours (FIGS. 4B and C).

For assay [3], the system named is GAPDH protein expression in Raw264.7 cells. The experiment in a line: GAPDH siRNA-LN knockdown by western blotting in Raw264.7 cells. The assay is classed as cell-based, mouse. The method, then:
(§2) FIG. 5: Raw264.7 cells were treated for 24 hours with siRNACy3 encapsulated in DLinDMA LNs in the presence or absence of 5% CQ-lipid. A lipid label, SPDiO, was incorporated into the LN to monitor uptake. LN uptake was assessed by (A) SPDiO fluorescence and distribution of siRNA was assessed by (B) Cy3 fluorescence using the Cellomics ArrayScan VTI. (C) Raw264.7 cells were incubated with the same LN formulations as in (B) for 24 hours at 10 μg/mL siRNACy3. siRNACy3 distribution was examined by confocal microscopy. (D) GAPDH siRNA was formulated into LN particles comprising of 40% DLinDMA with 0% CQ-lipid or 40% DLinDMA with 5% CQ-lipid. Raw264.7 cells were treated with 5, 10 and 20 μg/mL of siRNA for 48 and 72 hours. GAPDH protein expression was assessed by western blotting against anti-GAPDH and anti-actin. (E) LNCaP cells were treated accordingly as in (D).
(§3) Perhaps most importantly, we wanted to determine whether the enhanced cytosolic distribution of siRNACy3 observed with the CQ-lipid correlated to enhanced gene knockdown. Glyceraldehyde 3-phosphate dehydrogenase (GAPDH) is an ubiquitously expressed cytosolic protein and therefore knockdown efficiency of encapsulated siRNA can be tested in different cell lines (Barber et al., 2005). Raw264.7 cells were treated with LN of varying concentration of GAPDH siRNA for 24, 48 and 72 hours. Total protein was isolated and analyzed for GAPDH levels by immunoblotting. […] The function of GAPDH siRNA was specific since actin expression was unaltered (FIG. 5D). To confirm the function of the CQ-lipid in the LN-siRNA-mediated gene knockdown, GAPDH silencing was also assessed in LNCaP cells (FIG. 5E).

The subject of assay [4] is GAPDH protein expression in LNCaP cells. Kind of assay: GAPDH siRNA-LN knockdown in LNCaP cells. It is filed as cell-based, human. The protocol: as §2, §3
Assay [5] deals with HeLa cells. Kind of assay: LNP uptake in HeLa cells (SPDiO fluorescence, Cellomics / confocal). It is filed as cell-based, human. To be noted: for LNP uptake with cardiac glycosides: 0.05, 0.15 and 1.5 μM, 24 h. The method, then:
All cell lines were seeded at 5000 to 20,000 cells/well of 96-well ViewPlate (PerkinElmer, Shelton, Conn., USA) in 100 μl of medium and were allowed to grow overnight. Fresh medium containing 5 or 10 μg/ml of siRNA encapsulated in LNP was added the next day. Small molecules were either added manually or pinned from 1000-fold stocks in DMSO using a pinning robot equipped with 0.4 mm pins (BioRobotics, Cambridge, UK). Cells were incubated for 24 h. Cells were then washed once in PBSCM (1×PBS containing […] CaCl2), fixed in 3% paraformaldehyde containing Hoescht's stain for 15 min, washed once in PBSCM and stored in 100 μl of PBSCM.
Plates were imaged using a Cellomics Arrayscan VTI HCS Reader (Thermo Scientific, Pittsburgh, Pa., USA). Images were acquired using a 20× PlanFluor objective and a XF93 filter set. Object identification and image analysis were performed using the Cellomics Compartmental Analysis algorithm. Cellular SPDiO and siRNA-Cy3 fluorescence intensities were measured for a minimum of 400 cells and the average pixel intensity was examined. For confocal microscopy, cells grown on glass coverslips were washed once in 1×PBS, fixed in 3% paraformaldehyde containing Hoechst's stain for 15 min, washed again and mounted on slides. Images were captured on an Olympus FV1000 (Olympus, Center Valley, Pa., USA) laser scanning microscope and cellular SPDiO fluorescence intensity was analyzed using ImageJ (NIH, http://rsb.info.nih.gov/ij/).

For assay [6], the system named is Na+/K+-ATPase. To be noted: Paula et al., 2005; cited from earlier work.
[7] abbreviates: 30 μM free chloroquine, or 35% DLinDMA LNs with 5% CQ-lipid, 16 hours.

SMILES strings stand for the structures. Structures can show the parent of a compound that is named as a salt.

For `CC(=O)c1ccc(S(=O)(=O)NC(=O)NC2CCCCC2)cc1` [Acetohexamide], in assay [1], the “Normalized Punctate Distribution” value is listed as 1.48 and the “Normalized siRNA Uptake” value stood at 1.32.
For `Nc1nc(O)c2[nH]nnc2n1` [Azaguanine-8] the same measures were 0.07 and 0.54.
Take `CCCCC/C=C\C/C=C\CCCCCCCCOCC(CNCCCCNc1ccnc2cc(Cl)ccc12)OCCCCCCCC/C=C\C/C=C\CCCCC` (stereo not shown) [CQ-lipid]: the Cy5-siRNA punctate levels result in assay [2] (setting [7]) is “significant reduction”. The “intracellular DiO accumulation (LN uptake)” value in assay [2] (5% CQ-lipid:35% DLinDMA LN, highest dose, versus 0% CQ-lipid:40% DLinDMA) is “substantially reduced intracellular DiO accumulation”. In addition, the siRNACy3 punctate signal entry in assay [2] (40% DLinDMA LNs with 5% CQ-lipid, 24 hours) is given as “lowered punctate signal”. In addition, in assay [2] (40% DLinDMA LNs with versus without 5% CQ-lipid, 24 hours), the “uptake of LN particles (SPDiO fluorescence)” value is recorded as “comparable intracellular SPDiO fluorescence”. For the same molecule, the GAPDH protein expression entry in assay [3] (20 μg/mL GAPDH siRNA in LN containing 5% CQ-lipid, 48 hours) is listed as “decreased GAPDH protein expression”. In assay [3] (20 μg/ml siRNA in LN containing the CQ-lipid), the “gene knockdown occurred earlier than with LN without CQ-lipid” value is 24 h. For the same molecule, in assay [3] (24 hours), the GAPDH knockdown entry is “no knockdown”. The “knockdown of GAPDH” value in assay [3] (72 hours) was “more pronounced”; in assay [4] (LN containing 5% CQ-lipid, 72 hours) it was “More pronounced knockdown effect”; in assay [4] (all concentrations of LN containing 5% CQ-lipid, 48 hours), “Enhanced knockdown of GAPDH”.
As to `CCN(CC)CCCC(C)Nc1ccnc2cc(Cl)ccc12` (stereo not shown) [Chloroquine], in assay [1], the “Normalized Punctate Distribution” value was found to be 0.10, the “Normalized siRNA Uptake” value was found to be 0.34 and the “punctate / cytosolic distribution of siRNACy3 in titration study” value (“punctate / cytosolic distribution” below) is “significant loss of punctate distribution of siRNACy3 at 10 μM”. Further, the “siRNA showing punctate distribution” value in assay [2] (10 μM chloroquine, 24 hours (without chloroquine maximum 25-30%)) is roughly 10%. The “uptake of LNs (SPDiO fluorescence)” value in assay [2] (10 μM free chloroquine, 40% DLinDMA LNs, 16 hours) is recorded as “no significant difference”. Further, in assay [2] (10 μM free chloroquine, 16 hours), the Cy5-siRNA punctate levels result is “largely indifferent”. For the same molecule, the Cy5-siRNA punctate levels result in assay [2] (setting [7]) is recorded as “significant reduction”.
Turning to `C[N+]1(C)CCC(=C(c2ccccc2)c2ccccc2)CC1` [Diphemanil methylsulfate], in assay [1], the “Normalized Punctate Distribution” value is 0.34, the “Normalized siRNA Uptake” value is 0.70 and the “punctate / cytosolic distribution” value is recorded as “only showed enhanced cytosolic distribution of siRNACy3 at 30 μM”.
In the case of `Cn1c(=O)c2c(ncn2CC(O)CO)n(C)c1=O` (stereo not shown) [Diprophylline], in assay [1], the “Normalized Punctate Distribution” value came out at 1.55, the “Normalized siRNA Uptake” value came out at 1.38 and the “increase in siRNACy3 accumulation” value is on record as “Approximately 2 fold”.
As for `C[C@H]1O[C@@H](O[C@H]2CC[C@]3(C=O)[C@H]4CC[C@]5(C)[C@@H](C6=CC(=O)OC6)CC[C@]5(O)[C@@H]4CC[C@]3(O)C2)C[C@H](O)[C@@H]1O` [Helveticoside], the “LNP uptake with cardiac glycosides” value in assay [5] is “enhanced LNP uptake at a higher concentration”. For the same molecule, the “presence of LNs in cells by confocal microscopy” value in assay [5] (treated for 24 hrs) was “substantial amount of LNs”. Besides, the “relative binding affinity among the 9 cardiac glycosides” value in assay [6] is reported as “weakest binder”.
`CC(=O)OCC(=O)[C@@]1(O)CC[C@H]2[C@@H]3CCC4=CC(=O)C=C[C@]4(C)[C@@]3(F)[C@@H](O)C[C@@]21C` [Isoflupredone acetate]: in assay [1], the “Normalized Punctate Distribution” value was 0.07 and the “Normalized siRNA Uptake” value is 0.50.
`Cc1cc(NC(=O)C2=C(O)c3ccccc3S(=O)(=O)N2C)no1` [Isoxicam]: in assay [1], the “Normalized Punctate Distribution” value is 1.53, the “Normalized siRNA Uptake” value is 1.42 and the “increase in siRNACy3 accumulation” value is given as roughly 3 fold.
As for `CC(COc1ccccc1)NC(C)C(O)c1ccc(O)cc1` (stereo not shown) [Isoxsuprine HCl, isoxsuprine hydrochloride], in assay [1], the “Normalized Punctate Distribution” value is 0.33 and the “Normalized siRNA Uptake” value is on record as 0.51.
For the molecule `N[C@@H](Cc1ccc(O)c(O)c1)C(=O)O` [Levodopa], in assay [1], the “Normalized Punctate Distribution” value is on record as 1.43 and the “Normalized siRNA Uptake” value is given as 1.28.
As for `c1ccc2c(CC3=NCCN3)cccc2c1` [Naphazoline HCl, naphazoline hydrochloride], in assay [1], the “Normalized Punctate Distribution” value is 1.49 and the “Normalized siRNA Uptake” value amounted to 1.32.
For `C[C@@H]1O[C@@H](O[C@@H]2C=C3CCC4C(CC[C@]5(C)[C@@H](c6ccc(=O)oc6)CC[C@]45O)[C@@]3(C)CC2)[C@H](O)[C@H](O)[C@H]1O` (stereo partly shown) [Proscillaridin A], the “LNP uptake with cardiac glycosides” value in assay [5] is “required the least amount to cause an increased LNP uptake”. In addition, the “relative binding affinity among the 9 cardiac glycosides” value in assay [6] is on record as “strongest binder”.
For `COc1cc(C(=O)NCc2ccc(OCCN(C)C)cc2)cc(OC)c1OC` [Trimethobenzamide HCl, Trimethobenzamide hydrochloride], in assay [1], the “Normalized Punctate Distribution” value is recorded as 0.31, the “Normalized siRNA Uptake” value is listed as 0.70 and the “punctate / cytosolic distribution” value was “increased punctate distribution of siRNACy3 with increasing drug concentration”.

The record behind these values is patent US20120264810A1, “COMPOSITIONS AND METHODS FOR ENHANCING CELLULAR UPTAKE AND INTRACELLULAR DELIVERY OF LIPID PARTICLES” (The University of British Columbia, priority 2009, published 2012).
